Results: paper PMC10384408, “Anticancer Tungstenocenes with a Diverse Set of (O,O–), (O,S–) and (O,N–) Chelates—A Detailed Biological Study Using an Improved Evaluation via 3D Spheroid Models” (Pharmaceutics, 2023)

What was measured:
[1] = tested on: HCT116 cells; experiment: Resazurin assay, HCT116 2D monolayer; format: cell-based, human; settings: 96 h
Experimental: (§1) CH1/PA-1 (ovarian teratocarcinoma), SW480 (colon carcinoma) and A549 (non-small cell lung cancer) cells were maintained as described in the reference. IMR-90 human fetal lung fibroblasts (from the European Collection of Authenticated Cell Cultures, Porton Down, Salisbury, UK) were cultured in Stable Cell^TM DMEM/F12 supplemented with 0.01 mg/mL human recombinant insulin (both purchased from Sigma-Aldrich) and 10% fetal bovine serum (FBS, BioWest, Nuaillé, France). Human colon carcinoma cell lines HCT116 and HT29 (both kindly provided by the Institute of Cancer Research, Department of Medicine I, Medical University of Vienna, Austria) were cultured in McCoy’s 5a medium supplemented with 4 mM L-glutamine (both purchased from Sigma-Aldrich) and 10% FBS. MCF-7 human breast adenocarcinoma cells (kindly provided by M. Ogris, Department of Pharmaceutical Sciences, University of Vienna, Austria) were maintained in DMEM (high glucose) supplemented with 4 mM L-glutamine, 0.1 mg/mL human insulin (all purchased from Sigma-Aldrich) and 10% FBS. All cell lines were grown as monolayers in 75 cm^2 culture flasks (CytoOne, Starlab, Hamburg, Germany) at 37 °C in a humidified atmosphere containing 5% CO2.
(§2) For the resazurin assay in monolayer cultures, cells were seeded into 96-well microculture plates (CytoOne, tissue culture treated, Starlab, Hamburg, Germany) in densities of 2 × 10^3 HCT116, 2 × 10^3 HT29 and 4 × 10^3 MCF-7 cells per well (each in 100 µL). For tests in 3D cultures, spheroids were grown as described above. After 24 h (for monolayers) or 4 days (for spheroids) the test compounds in the appropriate medium were added in serial dilution to the plates to obtain a total volume of 200 µL/well. Wells without cells, containing medium and resazurin (Alfa Aesar, Thermo Fisher, Kandel, Germany) solution were used as blanks. After 96 h exposure 20 µL of the resazurin solution (440 µM) were added to each well, followed by a 4 h (2D) or 12 h (3D) incubation period. Resorufin fluorescence was quantified at 530 nm (and a reference wavelength of 620 nm) by using a microplate reader (Synergy HT, BioTek) with Gen5^TM 3.10 software (BioTek).

[2] = tested on: A549 (non-small cell lung carcinoma) cells; experiment: MTT cytotoxicity assay, A549 monolayer; format: cell-based, human; settings: exposure time 96 h, mean ± SD
Experimental: as §1
(§3) Exponentially growing cells were plated into 96-well microculture plates (CytoOne, tissue culture treated, Starlab, Hamburg, Germany) in densities of 1 × 10^3 CH1/PA-1, 2 × 10^3 SW480, 3 × 10^3 A549 and 7 × 10^3 IMR-90 cells per well (each in 100 µL). After a 24 h preincubation, drugs were added in serial dilution to give a final volume of 200 µL/well and exposed for 96 h. At the end of the exposure, the drug solutions were replaced by 100 µL RPMI 1640/MTT mixture (7:1 ratio). MTT (3-(4,5-dimethylthiazol-2-yl)-2,5-diphenyl-2H-tetrazolium bromide), (Acros Organics, Geel, Belgium) solution was prepared in phosphate-buffered saline (5 mg/mL) and mixed with RPMI1640 medium supplemented with 4 mM L-glutamine (both from Sigma-Aldrich) and 10% FBS. After 4 h incubation, the formazan crystals were solubilized in 150 µL of DMSO per well. Absorbance was measured at 550 nm (and at 690 nm as a reference) with a microplate reader (ELx808, BioTek, Winoosky, VT, USA) and Gen5^TM 3.08 software (BioTek). The 50% inhibitory concentrations (IC50) relative to untreated controls were interpolated from concentration-effect curves. At least three biologically and technically independent experiments were performed.

[3] = tested on: CH1/PA-1 (ovarian teratocarcinoma) cells; experiment: MTT cytotoxicity assay, CH1/PA-1 monolayer; format: cell-based, human; settings: exposure time 96 h, mean ± SD
Experimental: as §1, §3

[4] = tested on: IMR-90 human lung fibroblasts; experiment: MTT cytotoxicity assay, IMR-90 fibroblasts; format: cell-based; settings: exposure time 96 h, mean ± SD
Experimental: as §1, §3

[5] = tested on: SW480 (colon carcinoma) cells; experiment: MTT cytotoxicity assay, SW480 monolayer; format: cell-based, human; settings: exposure time 96 h, mean ± SD
Experimental: as §1, §3

[6] = Solubility in PBS (1% DMSO); format: physicochemical
Experimental: (§4) Stock solutions in DMSO of compounds 1–10 were utilized to determine the solubility in PBS by adding 1 vol% of the stock solution to a suitable amount of PBS. […] UV/Vis data were recorded on a Perkin Elmer Lambda 650 UV/Vis Spectrophotometer with a Peltier element for temperature control.

[7] = tested on: HT29 cells; experiment: Resazurin assay, HT29 2D monolayer; format: cell-based, human; settings: 96 h
Experimental: as §1, §2

[8] = tested on: HCT116 cells; experiment: Annexin V-FITC/PI apoptosis assay, HCT116; format: cell-based, human; settings: HCT116, 24 h, 200 µM; for ∑apoptotic cells [%]: sum of early and late
[9] = tested on: HT29 cells; experiment: Annexin V-FITC/PI apoptosis assay, HT29; settings: HT29, 24 h, 200 µM; for ∑apoptotic cells [%]: sum of early and late
[10] = Aqueous stability by UV/Vis in PBS; format: physicochemical; settings: 24 h, 293 K, 1 vol% DMSO
Experimental: as §4
In order to examine the stability of the compounds in aqueous solution, UV/Vis measurements were performed every hour during 24 h at 293 K. Solutions of compounds 1–10 were prepared in PBS (10%) from a previously prepared DMSO stock solution of each compound. The total concentration of DMSO was 1 vol% for the final complex solutions of 1–10.

[11] = tested on: HCT116, HT29 and MCF-7 cell lines; experiment: ROS detection (DCFH-DA assay); format: cell-based, human; settings: 2, 20, 100 and 200 µM, 2 h
Experimental: Reactive oxygen species (ROS) generation was measured by means of the DCFH-DA assay. […] On the following day, cells were washed with 200 µL Hanks’ balanced salt solution (HBSS, Sigma-Aldrich, containing 1% FBS) and stained with 100 µL of 25 µM DCFH-DA (2′,7′-dichlorofluorescein diacetate, Sigma-Aldrich) in HBSS (containing 1% FBS) for 45 min at 37 °C in the dark. After the incubation period, cells were washed with 200 µL HBSS (1% FBS) and loaded with compounds at concentrations of 2 µM, 20 µM, 100 µM and 200 µM in 200 µL phenol-red-free MEM (1% FBS) in triplicates. As positive controls, cells were treated with 200 µM and 400 µM tert-butylhydroperoxide (Sigma-Aldrich). Wells containing only phenol-red-free medium with 1% FBS were used as blanks, and non-drug treated, cell containing wells as reference values. Fluorescence (excitation: 485/20 nm, emission: 516/20 nm) was recorded in 10 min intervals with the Synergy HT reader (BioTek) over 2 h.

Row | Structure (SMILES) | IC50 [1] | IC50 [2] | IC50 [3] | IC50 [4] | IC50 [5] | Solubility in PBS (1% DMSO) [6] | IC50 [7] | early apoptotic cells [%] AV+ / PI- [8] | late apoptotic cells [%] AV+ / PI+ [8] | necrotic cells [%] AV- / PI+ [8] | viable cells [%] AV- / PI- [8] | early apoptotic cells [%] AV+ / PI- [9] | late apoptotic cells [%] AV+ / PI+ [9] | necrotic cells [%] AV- / PI+ [9] | viable cells [%] AV- / PI- [9] | ∑apoptotic cells [%] [9] | ∑apoptotic cells [%] [8] | precipitation in PBS [10] | intracellular ROS levels [11]
1 | Cc1occc(=S)c1[O-].F[P-](F)(F)(F)(F)F.[W+4].c1cc[cH-]c1.c1cc[cH-]c1 [Compound 2, Bis(η^5-cyclopentadienyl)[2-methyl-3-(oxo-κO)-4-(1H)-pyran-4-thionato-κS]tungsten(IV) hexafluorophosphate] | 98 ± 12 µM | 36 ± 6 µM | 24 ± 3 µM | 107 ± 30 µM | 36 ± 7 µM | 250 µg/mL | 53 ± 9 µM | 7.2 ± 1.9% | 27.1 ± 17.6% | 2.2 ± 0.2% | 63.5 ± 18.6% | 3.9 ± 1.8% | 6.1 ± 1.0% | 3.3 ± 2.4% | 86.8 ± 2.4% | 10% |  |  | 
2 | F[P-](F)(F)(F)(F)F.O=C([O-])c1ccccn1.[W+4].c1cc[cH-]c1.c1cc[cH-]c1 [Compound 5, Bis(η^5-cyclopentadienyl)[2-(carboxylato-κO)-pyridine-κN]tungsten(IV) hexafluorophosphate] | > 200 µM | > 200 µM | > 200 µM |  | 147 ± 21 µM | 180 µg/mL | > 200 µM | 2.0 ± 1.1% | 2.9 ± 0.7% | 2.4 ± 1.2% | 92.7 ± 1.3% | 0.9 ± 0.7% | 5.3 ± 6.9% | 2.3 ± 1.5% |  | 6.2% | 4.9% |  | 
3 | Cc1c([O-])c(=O)ccn1C.F[P-](F)(F)(F)(F)F.[W+4].c1cc[cH-]c1.c1cc[cH-]c1 [Compound 6, Bis(η^5-cyclopentadienyl)[1,2-dimethyl-3-(oxo-κO)-4-(1H)-pyridonato-κO]tungsten(IV) hexafluorophosphate] | > 200 µM | 141 ± 36 µM | > 200 µM |  | 154 ± 29 µM | 1200 µg/mL | > 200 µM | 5.0 ± 1.3% | 17.2 ± 122% | 3.1 ± 0.7% | 74.7 ± 14.1% | 4.3 ± 1.8% | 4.2 ± 0.6% | 2.4 ± 0.7% | 89.1 ± 0.4% | 8.5% | 22.2% |  | 
4 | Cc1cc(=O)c([O-])co1.F[P-](F)(F)(F)(F)F.[W+4].c1cc[cH-]c1.c1cc[cH-]c1 [Compound 7, Bis(η^5-cyclopentadienyl)[2-methyl-5-(oxo-κO)-4-(1H)-pyran-4-ato-κO] tungsten(IV) hexafluorophosphate] | > 200 µM | > 200 µM | 152 ± 16 µM |  | > 200 µM | 350 µg/mL | > 200 µM | 4.5 ± 1.8% | 13.7 ± 8.2% | 3.6 ± 0.9% | 78.2 ± 9.3% | 3.0 ± 1.6% | 5.5 ± 1.9% | 3.1 ± 2.3% | 88.4 ± 3.8% | 8.5% | 18.2% | slowly precipitate out of the solution over time | 
5 | Cc1cc(=S)c([O-])co1.F[P-](F)(F)(F)(F)F.[W+4].c1cc[cH-]c1.c1cc[cH-]c1 [Compound 8, Bis(η^5-cyclopentadienyl)[2-methyl-5-(oxo-κO)-pyran-4-(1H)-thionato-κS] tungsten(IV) hexafluorophosphate] | > 200 µM | > 200 µM | 93 ± 15 µM |  | 129 ± 14 µM | 410 µg/mL | > 200 µM | 5.5 ± 2.0% | 12.4 ± 2.4% | 2.8 ± 1.3% | 79.4 ± 3.5% | 3.3 ± 2.1% | 6.2 ± 4.1% | 2.1 ± 0.9% | 88.4 ± 3.6% | 9.5% | 17.9% | slowly precipitate out of the solution over time | 
6 | CCc1occc(=O)c1[O-].F[P-](F)(F)(F)(F)F.[W+4].c1cc[cH-]c1.c1cc[cH-]c1 [Compound 9, Bis(η^5-cyclopentadienyl)[2-ethyl-3-(oxo-κO)-4-(1H)-pyran-4-ato-κO] tungsten(IV) hexafluorophosphate] | > 200 µM | > 200 µM | > 200 µM |  | 101 ± 15 µM | 550 µg/mL | > 200 µM | 1.5 ± 0.8% | 2.3 ± 0.3% | 2.3 ± 0.4% | 93.9 ± 0.5% | 0.9 ± 0.6% | 3.9 ± 4.5% | 2.3 ± 1.3% | 92.9 ± 5.8% | 4.8% | 3.8% |  | Pronounced elevation of ROS levels
